Literature values, collected in article PMC7321301, “Characteristics of New Peptides GQLGEHGGAGMG, GEHGGAGMGGGQFQPV, EQGFLPGPEESGR, RLARAGLAQ, YGNPVGGVGH, and GNPVGGVGHGTTGT as Inhibitors of Enzymes Involved in Metabolic Syndrome and Antimicrobial Potential” (Molecules, 2020).
Read-outs that look alike come from different tables or passages of the source. No end group written: not given here.

Legend:
ACE = conditions: cited from earlier work
α-amylase = conditions: no reference given; cited from earlier work

Thα1: peptide Thα1, ACE inhibitory, from another study (SDAAVDTSSEITTKDLKEKKEVVEEAEN; ends and bridges not checked; UniProt P06454 2-29, looked up)
ACE inhibitory IC50 (ACE): 2.5 µg/mL

GKHVAVHAR [GHA-8]
ACE inhibitory activity (ACE): exhibited ACE inhibitory activity

TTFHTSGY
type of ACE inhibition (ACE; inhibition kinetic analysis): competitive inhibitor

AFKDEDTEEVPFR
ACE inhibitory IC50 (ACE): 127 µg/mL

C[C@H](CS)C(=O)N1CCC[C@H]1C(=O)O [Captropril]
type of ACE inhibition (ACE): competitive inhibitor

GKPVAVPA [GA-8]
ACE inhibitory activity (ACE): exhibited ACE inhibitory activity

C[C@H]1O[C@H](O[C@H]2[C@H](O)[C@@H](O)[C@@H](O[C@H]3[C@H](O)[C@@H](O)C(O)O[C@@H]3CO)O[C@@H]2CO)[C@H](O)[C@@H](O)[C@@H]1N[C@H]1C=C(CO)[C@@H](O)[C@H](O)[C@H]1O (stereo partly shown) [acarbose]
type of α-amylase inhibition (α-amylase): competitive inhibition
